What was measured:
[1] = biological target: T1, TNKS1 (Tankyrase 1, PARP5A) (Homo sapiens, UniProt O95271); experiment: TNKS1 colorimetric PARP activity assay kit (BPS #[…]), histone-coated plate; type: biochemical
T1 construct: gene TNKS

[2] = biological target: CDK8 (Cyclin-dependent kinase 8) (Homo sapiens, UniProt P49336); experiment: luminescence-based kinase assay; type: biochemical
Sequence of CDK8 (Cyclin-dependent kinase 8) (P49336 whole entry): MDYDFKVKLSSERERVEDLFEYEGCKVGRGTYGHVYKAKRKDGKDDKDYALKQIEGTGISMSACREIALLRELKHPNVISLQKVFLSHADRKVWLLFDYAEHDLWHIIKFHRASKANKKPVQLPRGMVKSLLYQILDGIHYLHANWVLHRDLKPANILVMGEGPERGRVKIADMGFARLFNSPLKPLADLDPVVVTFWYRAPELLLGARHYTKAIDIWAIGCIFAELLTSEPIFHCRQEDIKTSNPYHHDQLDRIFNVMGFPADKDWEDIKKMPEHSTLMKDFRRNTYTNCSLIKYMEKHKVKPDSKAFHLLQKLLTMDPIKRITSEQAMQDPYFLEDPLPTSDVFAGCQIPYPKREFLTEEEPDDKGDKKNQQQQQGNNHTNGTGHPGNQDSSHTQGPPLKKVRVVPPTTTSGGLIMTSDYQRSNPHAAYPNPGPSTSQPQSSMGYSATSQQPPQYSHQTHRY

T1 sequence (O95271 whole entry): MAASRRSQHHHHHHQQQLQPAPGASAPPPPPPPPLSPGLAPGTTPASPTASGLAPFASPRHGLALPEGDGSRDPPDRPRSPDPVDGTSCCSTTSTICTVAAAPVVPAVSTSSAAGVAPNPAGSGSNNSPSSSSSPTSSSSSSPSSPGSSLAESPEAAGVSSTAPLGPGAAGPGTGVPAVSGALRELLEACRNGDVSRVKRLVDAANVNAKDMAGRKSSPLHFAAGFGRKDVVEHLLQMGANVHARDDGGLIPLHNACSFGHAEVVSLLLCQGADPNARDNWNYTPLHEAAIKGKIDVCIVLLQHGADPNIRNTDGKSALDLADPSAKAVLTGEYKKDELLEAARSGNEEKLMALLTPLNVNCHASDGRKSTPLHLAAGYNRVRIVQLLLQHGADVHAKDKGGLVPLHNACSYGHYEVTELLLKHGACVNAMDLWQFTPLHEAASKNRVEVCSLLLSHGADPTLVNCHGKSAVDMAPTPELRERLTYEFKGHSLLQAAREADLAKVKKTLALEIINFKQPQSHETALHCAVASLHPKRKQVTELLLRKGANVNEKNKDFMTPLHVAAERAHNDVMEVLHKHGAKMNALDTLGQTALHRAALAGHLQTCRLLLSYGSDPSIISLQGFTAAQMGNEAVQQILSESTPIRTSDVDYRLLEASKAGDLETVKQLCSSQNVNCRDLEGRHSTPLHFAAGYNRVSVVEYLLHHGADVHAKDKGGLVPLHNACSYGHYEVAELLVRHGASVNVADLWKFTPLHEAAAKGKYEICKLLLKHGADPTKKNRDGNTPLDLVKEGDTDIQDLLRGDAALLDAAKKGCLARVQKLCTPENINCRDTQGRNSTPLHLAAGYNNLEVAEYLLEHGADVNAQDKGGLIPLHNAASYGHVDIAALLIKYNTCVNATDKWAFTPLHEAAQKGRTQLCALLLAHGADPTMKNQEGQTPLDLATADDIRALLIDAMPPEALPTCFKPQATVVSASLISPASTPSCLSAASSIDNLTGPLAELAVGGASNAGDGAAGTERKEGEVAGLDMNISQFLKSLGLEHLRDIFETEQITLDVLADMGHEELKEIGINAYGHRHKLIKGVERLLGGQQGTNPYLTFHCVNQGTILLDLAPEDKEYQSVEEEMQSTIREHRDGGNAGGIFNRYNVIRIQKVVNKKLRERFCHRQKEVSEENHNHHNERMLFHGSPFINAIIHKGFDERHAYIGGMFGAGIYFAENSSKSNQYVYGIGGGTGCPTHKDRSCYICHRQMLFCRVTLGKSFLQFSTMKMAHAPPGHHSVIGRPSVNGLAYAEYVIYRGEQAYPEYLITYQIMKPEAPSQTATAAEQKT

O=c1cccc(-c2ccc(Cl)cc2)o1 [TCS9725, 6-(4-chlorophenyl)-2H-pyran-2-one]
IC50 [1]: 243 nM | IC50 [2]: 404 nM

— article PMC12192500, “Selective Dual Inhibition of TNKS1 and CDK8 by TCS9725 Attenuates STAT1/β-Catenin/TGFβ1 Signaling in Renal Cancer” (Current Issues in Molecular Biology, 2025)
